Data: paper PMC6606611, “A comparative analysis of secreted protein disulfide isomerases from the tropical co-endemic parasites Schistosoma mansoni and Leishmania major” (Scientific Reports, 2019)

How the values were obtained:
SmERp60 = biological target: T1, SmERp60 (Schistosoma mansoni, UniProt P38658); assay: fluorimetric di-eosin-GSSG disulfide reductase assay, […] protein; format: biochemical
T1 construct: recombinant, GST tag cleaved
T1 sequence (P38658 15-484): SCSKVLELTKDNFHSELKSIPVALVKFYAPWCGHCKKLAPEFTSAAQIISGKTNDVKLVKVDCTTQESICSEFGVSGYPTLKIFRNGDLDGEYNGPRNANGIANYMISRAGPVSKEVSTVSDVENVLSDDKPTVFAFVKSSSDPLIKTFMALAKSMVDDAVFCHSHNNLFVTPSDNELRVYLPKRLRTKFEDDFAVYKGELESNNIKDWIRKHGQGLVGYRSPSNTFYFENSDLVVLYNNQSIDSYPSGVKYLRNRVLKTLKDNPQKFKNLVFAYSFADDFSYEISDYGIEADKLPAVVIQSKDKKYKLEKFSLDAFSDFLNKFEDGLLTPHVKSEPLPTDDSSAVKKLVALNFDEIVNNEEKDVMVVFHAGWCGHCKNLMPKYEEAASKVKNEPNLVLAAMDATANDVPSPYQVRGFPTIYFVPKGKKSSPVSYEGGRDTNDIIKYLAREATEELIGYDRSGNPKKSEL

LmPDI = biological target: T2, LmPDI (Leishmania major, UniProt Q8I8E1); assay: as above; format: biochemical
T2 construct: gene pdi; recombinant, N-terminal cleavable His-FLAG tag
T2 sequence (Q8I8E1 entry or part of it): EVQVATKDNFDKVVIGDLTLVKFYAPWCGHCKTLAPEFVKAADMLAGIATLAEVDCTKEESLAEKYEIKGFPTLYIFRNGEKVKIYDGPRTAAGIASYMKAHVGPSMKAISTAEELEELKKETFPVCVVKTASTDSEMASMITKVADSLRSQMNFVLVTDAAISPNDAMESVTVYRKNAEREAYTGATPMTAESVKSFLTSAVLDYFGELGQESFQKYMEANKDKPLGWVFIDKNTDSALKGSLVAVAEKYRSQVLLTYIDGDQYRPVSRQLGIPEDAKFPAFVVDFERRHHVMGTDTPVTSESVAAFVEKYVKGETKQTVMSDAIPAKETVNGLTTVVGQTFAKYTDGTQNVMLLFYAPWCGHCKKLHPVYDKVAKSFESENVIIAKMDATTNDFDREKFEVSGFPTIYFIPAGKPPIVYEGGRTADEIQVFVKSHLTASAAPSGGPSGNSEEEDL

HsPDIA3/ERp57 = biological target: T3, HsPDIA3/ERp57 (Homo sapiens, UniProt P30101); assay: biochemical
T3 construct: gene PDIA3
T3 sequence (P30101 25-505): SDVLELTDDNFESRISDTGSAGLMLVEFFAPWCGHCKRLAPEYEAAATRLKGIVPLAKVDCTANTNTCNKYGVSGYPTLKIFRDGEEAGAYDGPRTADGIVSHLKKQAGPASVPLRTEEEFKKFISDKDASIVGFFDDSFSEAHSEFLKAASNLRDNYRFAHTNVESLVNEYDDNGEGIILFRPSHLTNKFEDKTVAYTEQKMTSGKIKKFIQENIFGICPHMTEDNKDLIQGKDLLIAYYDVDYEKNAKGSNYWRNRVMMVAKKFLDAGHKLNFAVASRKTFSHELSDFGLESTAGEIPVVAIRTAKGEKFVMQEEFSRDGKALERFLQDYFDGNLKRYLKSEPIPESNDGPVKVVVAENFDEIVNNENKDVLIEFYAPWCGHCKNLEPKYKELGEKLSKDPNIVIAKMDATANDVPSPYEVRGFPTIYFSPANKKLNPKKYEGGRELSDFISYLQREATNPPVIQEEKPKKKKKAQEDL

Row | SMILES | IC50 (SmERp60) [nM] | IC50 (LmPDI) [nM] | IC50 (HsPDIA3/ERp57) [nM]
1 | COc1cc([C@H]2Oc3cc([C@H]4Oc5cc(O)cc(O)c5C(=O)[C@@H]4O)ccc3O[C@@H]2CO)ccc1O [silibinin A] | 750 |  | 
2 | O=C1O[C@H]2[C@@H]3OC(=O)c4cc(O)c(O)c(O)c4-c4c(O)c(O)c5oc(=O)c6c(c(O)c(O)c7oc(=O)c4c5c76)-c4c(cc(O)c(O)c4O)C(=O)OC[C@H]3OC(O)[C@@H]2OC(=O)c2cc(O)c(O)c(O)c2-c2c1cc(O)c(O)c2O (mixture of isomers) [punicalagin] |  | 7300 | 500
